The structures appear in SMILES notation. In brackets after ≈: the same amount, converted by molar mass.

The first test relates to MCF-7. As to the kind of experiment: MTT antiproliferative assay, 72 h, with or without estradiol. The test is classed as cell-based, human. Particulars: 72 hours exposition. The protocol: (§1) Anticancer activity of PDI A1-inhibitors has been also tested in vitro in antiproliferative essay in normoxic and hypoxic conditions as well in estrogen-stimulated cancer cells. In the experiment, cells were seeded on 96-well plates (Sarstedt, Germany) in appropriate culture medium at a density of 10^5 cells/mL 24 h before adding the tested compounds. Cells were treated with each compound in four concentrations in the range 0.1-100 ug/mL. […] After 72 h of compound treatment at 37° C., 5 % CO2 humid atmosphere and in wo different oxygen level conditions: 21% - normal and <1% - hypoxia. In some experiments, the MDA-MB-231 and MCF-7 cells were seeded with or without 200 nM estradiol and after 24 h the tested compounds were added. A previously described sulforhodamine B antiproliferative assay was used with minor modifications (Skehan P et al., 1990). Briefly, cells were fixed with 50 µL/well of 50% (w/v) trichloroacetic acid (Avantor Performance Materials, Gliwice, Poland). After 1 h incubation, plates were washed several times with tap water and 50 µL of 0.4% (w/v) solution of sulforhodamine B (Sigma-Aldrich, Germany) in 1% (v/v) acetic acid (Avantor Performance Materials, Gliwice, Poland) was added to each well. After 30 min incubation at room temperature, unbound dye was washed out with 1% (v/v) acetic acid, whereas bound dye was solubilized with 10 mM unbuffered TRIS (Avantor Performance Materials, Gliwice, Poland) solution. The entire procedure was performed using a BioTek EL-406 washing station (BioTek Instruments, USA). After additional 30 min, absorbance was read using a Biotek Hybrid H4 reader (BioTek Instruments, USA) at 540 nm wavelength. MTT assay was used alternatively for HL-60 cell line and in the experiment in which estrogens are added (specified in the table legend). Absorbance was measured using a Biotek Hybrid H4 reader at 570 nm wavelength for MTT assay.
(§2) Compounds at each concentration were tested in triplicate in a single experiment and each experiment was repeated at least three times independently.
(§3) Results of in vitro antiproliferative effects are shown in Table 3 and Table 4 and are presented as mean IC50 ± SD calculated using the Prolab-3 system based on Cheburator 0.4 software.
(§4) Statistical analysis: Unpaired t test. *p<0.05 as compared to appropriate cells not pretreated with estradiol. MTT assay was used for antiproliferative activity assessment.
A general note: Formazan colour is commonly taken as a measure of viable cells.
With `CCCCCCc1ccc(S(=O)(=O)N2CC2C(=O)OC)cc1` (stereo not drawn) [Compound C-3287, Methyl 1-(4-hexylphenyl)sulfonylaziridine-2-carboxylate], the “Selectivity index (SI): IC50 of MCF-10A/ IC50 of MCF-7” value (shortened to “Selectivity index (SI): IC50”) amounted to 1.10.

As to `COC(=O)C1CN1S(=O)(=O)c1cccc2c(N(C)C)cccc12` (stereo not drawn) [Compound C-3326, Methyl 1-[[5-(dimethylamino)-1-naphthyl]sulfonyl]aziridine-2-carboaylate], the “Selectivity index (SI): IC50” value worked out at 4.84.

Turning to `COC(=O)C1CN1S(=O)(=O)c1ccc(F)cc1F` (stereo not drawn) [Compound C-3353, Methyl 1-(2,4-difluorophenyl)sulfonylaziridine-2-carboxylate], the “Selectivity index (SI): IC50” value amounted to 3.36.

The same test, now with this note: Homo sapiens, MCF7; 200 nM estradiol, 72 hours exposition, MTT; read-out: IC50 [µg/ml] MCF-7 + estradiol.
`CCCCCCc1ccc(S(=O)(=O)N2CC2C(=O)OC)cc1` (stereo not drawn) [Compound C-3287, Methyl 1-(4-hexylphenyl)sulfonylaziridine-2-carboxylate]: the IC50 turned out to be 29.3 ± 4.1 µg/mL.

With `COC(=O)C1CN1S(=O)(=O)c1cccc2c(N(C)C)cccc12` (stereo not drawn) [Compound C-3326, Methyl 1-[[5-(dimethylamino)-1-naphthyl]sulfonyl]aziridine-2-carboaylate], the IC50 is 10.4 ± 2.4 µg/mL.

As for `COC(=O)C1CN1S(=O)(=O)c1ccc(F)cc1F` (stereo not drawn) [Compound C-3353, Methyl 1-(2,4-difluorophenyl)sulfonylaziridine-2-carboxylate], the IC50 was 5.8 ± 1.3 µg/mL.

The same test, now with this note: Homo sapiens, MCF7; not pretreated with estradiol, 72 hours exposition, MTT; read-out: IC50 [µg/ml] MCF-7 normal.
Turning to `CCCCCCc1ccc(S(=O)(=O)N2CC2C(=O)OC)cc1` (stereo not drawn) [Compound C-3287, Methyl 1-(4-hexylphenyl)sulfonylaziridine-2-carboxylate], the IC50 came to 31.3 ± 0.6 µg/mL (≈ 96.2 µM).

As for `COC(=O)C1CN1S(=O)(=O)c1cccc2c(N(C)C)cccc12` (stereo not drawn) [Compound C-3326, Methyl 1-[[5-(dimethylamino)-1-naphthyl]sulfonyl]aziridine-2-carboaylate], the IC50 turned out to be 5.4 ± 1.7 µg/mL (≈ 16.1 µM).

For `COC(=O)C1CN1S(=O)(=O)c1ccc(F)cc1F` (stereo not drawn) [Compound C-3353, Methyl 1-(2,4-difluorophenyl)sulfonylaziridine-2-carboxylate], the IC50 is 6.2 ± 1.8 µg/mL (≈ 22.4 µM).

The test is the same for the next values; noted with them: with estradiol versus without.
Consider `COC(=O)C1CN1S(=O)(=O)c1cccc2c(N(C)C)cccc12` (stereo not drawn) [Compound C-3326, Methyl 1-[[5-(dimethylamino)-1-naphthyl]sulfonyl]aziridine-2-carboaylate], for which the “Change in sensitivity of MCF-7 after addition of estradiol” value was “slight decrease in sensitivity”.

For the next test, the system named is MDA-MB-231. The description is as above. The test is classed as cell-based, human. To be noted: Homo sapiens, MDA-MB-231; 200 nM estradiol, 72 hours exposition, MTT; read-out: IC50 [µg/ml] MDA-MB-231 + estradiol. The protocol: as §1, §2, §3, §4
Turning to `CCCCCCc1ccc(S(=O)(=O)N2CC2C(=O)OC)cc1` (stereo not drawn) [Compound C-3287, Methyl 1-(4-hexylphenyl)sulfonylaziridine-2-carboxylate], the IC50 is 23.8 ± 2.3 µg/mL.

For `COC(=O)C1CN1S(=O)(=O)c1cccc2c(N(C)C)cccc12` (stereo not drawn) [Compound C-3326, Methyl 1-[[5-(dimethylamino)-1-naphthyl]sulfonyl]aziridine-2-carboaylate], the IC50 was determined as 17.7 ± 2.1 µg/mL.

With `COC(=O)C1CN1S(=O)(=O)c1ccc(F)cc1F` (stereo not drawn) [Compound C-3353, Methyl 1-(2,4-difluorophenyl)sulfonylaziridine-2-carboxylate], the IC50 was determined as 25.7 ± 1.9 µg/mL.

Staying with this test, now noted: Homo sapiens, MDA-MB-231; not pretreated with estradiol, 72 hours exposition, MTT; read-out: IC50 [µg/ml] MDA-MB-231 normal.
Regarding `CCCCCCc1ccc(S(=O)(=O)N2CC2C(=O)OC)cc1` (stereo not drawn) [Compound C-3287, Methyl 1-(4-hexylphenyl)sulfonylaziridine-2-carboxylate], the IC50 stood at 6.4 ± 0.8 µg/mL (≈ 19.7 µM).

In the case of `COC(=O)C1CN1S(=O)(=O)c1cccc2c(N(C)C)cccc12` (stereo not drawn) [Compound C-3326, Methyl 1-[[5-(dimethylamino)-1-naphthyl]sulfonyl]aziridine-2-carboaylate], the IC50 worked out at 15.7 ± 3.1 µg/mL (≈ 47 µM).

Turning to `COC(=O)C1CN1S(=O)(=O)c1ccc(F)cc1F` (stereo not drawn) [Compound C-3353, Methyl 1-(2,4-difluorophenyl)sulfonylaziridine-2-carboxylate], the IC50 stood at 24.2 ± 2.6 µg/mL (≈ 87.3 µM).

The test is the same for the next values; noted with them: with estradiol versus without.
As to `CCCCCCc1ccc(S(=O)(=O)N2CC2C(=O)OC)cc1` (stereo not drawn) [Compound C-3287, Methyl 1-(4-hexylphenyl)sulfonylaziridine-2-carboxylate], the “Change of antiproliferative activity towards MDA-MB-231 during simultaneous incubation with estradiol” value is on record as “slight decrease of antiproliferative activity”.

The next test relates to HT-1080 (human fibrosarcoma). Description: MTT antiproliferative assay, 48 h. The test is classed as cell-based. Particulars: 48-hour exposition, read-out: Cytotoxicity, IC50, µM HT-1080. The protocol:
(§5) About 2000-4000 cells per well (depending on line nature) were placed in 96-well plates and after 24 h compounds were added to the wells. Untreated cells were used as a control. The plates were incubated for 48 h, 37° C., 5% CO2. The number of surviving cells was determined using 3-(4,5-dimethylthiazol-2-yl)-2,5-diphenyltetrazolinium bromide (MTT). MTT-test: after incubating culture medium was removed and 200 µL fresh medium with 20 µL MTT (2 mg/mL in HBSS) was added in each well of the plate. After incubation (3 hr., 37° C., 5% CO2), the medium with MTT was removed and 200 µL DMSO were added at once to each sample. The samples were tested at 540 nm on Thermo Scientific Multiskan EX microplate photometer. The half-maximal inhibitory concentration (IC50) of each compound was calculated using Graph Pad Prism® 3.0.
Take `COC(=O)C1CN1S(=O)(=O)c1cccc2c(N(C)C)cccc12` (stereo not drawn) [Compound C-3326, Methyl 1-[[5-(dimethylamino)-1-naphthyl]sulfonyl]aziridine-2-carboaylate]: the IC50 is 100 ± 5 µM.

For a further test, the system named is MCF-7 (human breast adenocarcinoma, estrogen-positive). Description: MTT antiproliferative assay, 48 h. It counts as cell-based. To be noted: Homo sapiens, MCF7, 48-hour exposition, read-out: Cytotoxicity, IC50, µM MCF-7. The protocol: as §5
On to `CCCCCCc1ccc(S(=O)(=O)N2CC2C(=O)OC)cc1` (stereo not drawn) [Compound C-3287, Methyl 1-(4-hexylphenyl)sulfonylaziridine-2-carboxylate], for which the IC50 was 123 ± 17 µM.

`COC(=O)C1CN1S(=O)(=O)c1cccc2c(N(C)C)cccc12` (stereo not drawn) [Compound C-3326, Methyl 1-[[5-(dimethylamino)-1-naphthyl]sulfonyl]aziridine-2-carboaylate]: the IC50 is 349 ± 13 µM.

Another test relates to Caco-2 (human colon adenocarcinoma). As to the kind of experiment: MTT antiproliferative assay, 48 h. Particulars: Homo sapiens, Caco-2, 48-hour exposition, read-out: Cytotoxicity, IC50, µM CaCo-2. It counts as cell-based. The protocol: as §5
In the case of `COC(=O)C1CN1S(=O)(=O)c1cccc2c(N(C)C)cccc12` (stereo not drawn) [Compound C-3326, Methyl 1-[[5-(dimethylamino)-1-naphthyl]sulfonyl]aziridine-2-carboaylate], the IC50 amounted to 170 ± 20 µM.

The next test concerns MDA-MB-231 (human mammary breast adenocarcinoma). Description: MTT antiproliferative assay, 48 h. Particulars: Homo sapiens, MDA-MB-231, 48-hour exposition, read-out: Cytotoxicity, IC50, µM MDA-MB-231. It counts as cell-based. The protocol:
as §5
Turning to `COC(=O)C1CN1S(=O)(=O)c1cccc2c(N(C)C)cccc12` (stereo not drawn) [Compound C-3326, Methyl 1-[[5-(dimethylamino)-1-naphthyl]sulfonyl]aziridine-2-carboaylate], the IC50 was found to be 169 ± 20 µM.

The target in a further test is T1, PDI A1 (Homo sapiens, UniProt P07237).
T1 construct: purchased Mybiosource; host or cells: E. coli
T1 sequence (P07237 18-508, species assumed): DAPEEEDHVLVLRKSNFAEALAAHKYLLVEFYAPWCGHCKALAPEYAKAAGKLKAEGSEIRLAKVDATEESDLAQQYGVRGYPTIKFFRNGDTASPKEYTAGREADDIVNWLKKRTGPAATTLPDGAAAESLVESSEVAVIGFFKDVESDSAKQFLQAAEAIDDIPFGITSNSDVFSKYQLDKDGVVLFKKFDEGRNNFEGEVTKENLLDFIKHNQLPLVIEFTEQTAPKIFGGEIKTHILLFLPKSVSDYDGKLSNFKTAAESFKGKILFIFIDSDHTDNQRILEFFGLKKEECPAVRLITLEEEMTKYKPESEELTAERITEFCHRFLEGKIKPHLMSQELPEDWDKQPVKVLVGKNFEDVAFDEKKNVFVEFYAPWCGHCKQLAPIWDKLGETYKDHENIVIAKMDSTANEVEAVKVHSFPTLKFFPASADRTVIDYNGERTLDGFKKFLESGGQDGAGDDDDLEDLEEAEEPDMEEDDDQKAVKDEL
As to the kind of experiment: Insulin turbidometric assay, inhibition of PDI A1. It counts as biochemical. Particulars: insulin reduction, turbidity at 650 nm, 60 min incubation at 37° C.; read-out: Inhibition of PDI A1 (EC 50). As for the experimental part: The inhibitory effects compounds of invention on activity of PDI A1 was assess based on the insulin turbidometric assay. Enzymatic activity of PDIA1 was confirmed by measuring the turbidity increase at 650 nm due to insulin reduction. The assay mixture was prepared by addition 10 ug/ml PDIA1 (E.coli recombinant protein; Mybiosource), 0.1 mM phosphate buffer (pH7.6), 1 mM EDTA, 0.087 mM DTT and with or without tested compound and was incubated for 60 min, at 37° C. Reaction was started by addition insulin and DTT. Final concentration of insulin and DTT in assay mixture was 0.15 mM and 0.174 mM, respectively. Turbidity was detected at 650 nm against reference samples without PDI A1s. The measurements were performed at 650 nm using 120-s recordings.
As for `CCCCCCc1ccc(S(=O)(=O)N2CC2C(=O)OC)cc1` (stereo not drawn) [Compound C-3287, Methyl 1-(4-hexylphenyl)sulfonylaziridine-2-carboxylate], the EC50 was 0.05 µM.

With `COC(=O)C1CN1S(=O)(=O)c1ccc(F)cc1F` (stereo not drawn) [Compound C-3353, Methyl 1-(2,4-difluorophenyl)sulfonylaziridine-2-carboxylate], the EC50 was found to be 5 µM.

In a further test the test system is HT-29. As to the kind of experiment: MTT antiproliferative assay, 72 h. The test is classed as cell-based. To be noted: Homo sapiens, 72 hours exposition, read-out: IC50 [µg/ml] HT-29 normal. As for the experimental part: as §1, §2, §3, §4
In the case of `CCCCCCc1ccc(S(=O)(=O)N2CC2C(=O)OC)cc1` (stereo not drawn) [Compound C-3287, Methyl 1-(4-hexylphenyl)sulfonylaziridine-2-carboxylate], the IC50 was 31.5 ± 4.9 µg/mL (≈ 96.8 µM).

Consider `COC(=O)C1CN1S(=O)(=O)c1cccc2c(N(C)C)cccc12` (stereo not drawn) [Compound C-3326, Methyl 1-[[5-(dimethylamino)-1-naphthyl]sulfonyl]aziridine-2-carboaylate], for which the IC50 was found to be 39.2 ± 6.5 µg/mL (≈ 117 µM).

In the case of `COC(=O)C1CN1S(=O)(=O)c1ccc(F)cc1F` (stereo not drawn) [Compound C-3353, Methyl 1-(2,4-difluorophenyl)sulfonylaziridine-2-carboxylate], the IC50 is 35.9 ± 1.3 µg/mL (≈ 129 µM).

Another test has as its system HL-60. Description: MTT antiproliferative assay, 72 h. To be noted: Homo sapiens, 72 hours exposition, read-out: IC50 [µg/ml] HL-60 normal. The test is classed as cell-based. The protocol:
as §1, §2, §3, §4
In the case of `CCCCCCc1ccc(S(=O)(=O)N2CC2C(=O)OC)cc1` (stereo not drawn) [Compound C-3287, Methyl 1-(4-hexylphenyl)sulfonylaziridine-2-carboxylate], the IC50 is 0.5 ± 0.3 µg/mL (≈ 1.54 µM).

Regarding `COC(=O)C1CN1S(=O)(=O)c1cccc2c(N(C)C)cccc12` (stereo not drawn) [Compound C-3326, Methyl 1-[[5-(dimethylamino)-1-naphthyl]sulfonyl]aziridine-2-carboaylate], the IC50 came to 1.9 ± 0.6 µg/mL (≈ 5.68 µM).

`COC(=O)C1CN1S(=O)(=O)c1ccc(F)cc1F` (stereo not drawn) [Compound C-3353, Methyl 1-(2,4-difluorophenyl)sulfonylaziridine-2-carboxylate]: the IC50 was 2 ± 0.1 µg/mL (≈ 7.21 µM).
